# Laboratory results taken from patent US11162944B2, “Compositions and methods” (priority 2015, dated 2021).
# Read-outs that look alike come from different tables or passages of the source. Marks after values point to notes of the source that are not given here.
# System: biomarker (antibody) in serum samples from patients with symptoms of tuberculosis
# Type: binding, human
compound,measurement,setting,value
CCCCCCCCCCCCCCCCCCCCCC[C@@H](C(=O)OC[C@H]1O[C@H](OC)[C@@H](O)[C@@H]1O)[C@H](O)CCCCCCCCCCCCCCCCC[C@H]1C[C@H]1CCCCCCCCCCCCCCCC[C@@H](OC)[C@@H](C)CCCCCCCCCCCCCCCCCC [Antigen E],ELISA absorbance at 492 nm,serum sample 1 TB+,0.42*
same,ELISA absorbance at 492 nm,serum sample 2 TB+,0.36*
same,ELISA absorbance at 492 nm,serum sample 3 TB+,0.77*
same,ELISA absorbance at 492 nm,serum sample 4 TB+,0.90*
same,ELISA absorbance at 492 nm,serum sample 5 TB+,0.38*
same,ELISA absorbance at 492 nm,serum sample 6 TB+,0.54*
same,ELISA absorbance at 492 nm,serum sample 7 TB+,1.15*
same,ELISA absorbance at 492 nm,serum sample 8 TB+,0.69*
same,ELISA absorbance at 492 nm,serum sample 9 TB+,0.56*
same,ELISA absorbance at 492 nm,serum sample 10 TB−,0.35
same,ELISA absorbance at 492 nm,serum sample 11 TB−,0.45*
same,ELISA absorbance at 492 nm,serum sample 12 TB−,0.29
same,ELISA absorbance at 492 nm,serum sample 13 TB−,0.34
same,ELISA absorbance at 492 nm,serum sample 14 TB−,0.58*
same,ELISA absorbance at 492 nm,serum sample 15 TB−,0.37*
same,ELISA absorbance at 492 nm,serum sample 16 TB−,0.42*
same,ELISA absorbance at 492 nm,serum sample 17 TB−,0.47*
same,ELISA absorbance at 492 nm,serum sample 18 TB−,0.25
same,ELISA absorbance at 492 nm,serum sample 19 TB−,0.31
same,ELISA absorbance at 492 nm,serum sample 20 TB−,0.38*
same,ELISA absorbance at 492 nm,serum sample 21 TB−,0.35
same,ELISA absorbance at 492 nm,serum sample 22 TB−,0.24
same,ELISA absorbance at 492 nm,serum sample 23 TB−,0.35*
same,ELISA absorbance at 492 nm,serum sample 24 TB−,0.26
same,ELISA absorbance at 492 nm,serum sample 25 TB−,0.18
same,ELISA absorbance at 492 nm,serum sample 26 TB−,0.24
same,ELISA absorbance at 492 nm,serum sample 27 TB−,0.33
same,ELISA absorbance at 492 nm,serum sample 28 TB−,0.23
same,ELISA absorbance at 492 nm,serum sample 29 TB−,0.29
same,ELISA absorbance at 492 nm,serum sample 30 TB−,0.24
same,ELISA absorbance at 492 nm,serum sample 31 TB−,0.30
same,ELISA absorbance at 492 nm,serum sample 32 TB−,0.57*
same,ELISA absorbance at 492 nm,serum sample 33 TB−,0.46*
same,ELISA absorbance at 492 nm,serum sample 34 TB−,0.51*
same,ELISA absorbance at 492 nm,serum sample 35 TB−,0.26
same,ELISA absorbance at 492 nm,serum sample 36 TB−,0.23
same,ELISA absorbance at 492 nm,serum sample 37 TB−,0.41*
same,ELISA absorbance at 492 nm,serum sample 38 TB−,0.40*
same,ELISA absorbance at 492 nm,serum sample 39 TB−,0.31
same,ELISA absorbance at 492 nm,serum sample 40 TB−,0.25
same,ELISA absorbance at 492 nm,serum sample 41 TB−,0.33
same,ELISA absorbance at 492 nm,serum sample 42 TB−,0.42*
same,ELISA absorbance at 492 nm,serum sample 43 TB−,0.29
same,ELISA absorbance at 492 nm,serum sample 44 TB−,0.67*
same,ELISA absorbance at 492 nm,serum sample 45 TB−,0.35*
same,ELISA absorbance at 492 nm,serum sample 46 TB−,0.26
same,ELISA absorbance at 492 nm,serum sample 47 TB−,0.41*
same,ELISA absorbance at 492 nm,serum sample 48 TB−,0.17
same,ELISA absorbance at 492 nm,serum sample 49 TB−,0.25
same,ELISA absorbance at 492 nm,serum sample 50 TB−,0.30
same,ELISA absorbance at 492 nm,serum sample 51 TB−,0.18
same,ELISA absorbance at 492 nm,serum sample 52 TB−,0.26
same,ELISA absorbance at 492 nm,serum sample 53 TB−,0.25
same,ELISA absorbance at 492 nm,serum sample 54 TB−,0.20
same,ELISA absorbance at 492 nm,serum sample 55 TB−,0.22
same,ELISA absorbance at 492 nm,serum sample 56 TB−,0.31
same,ELISA absorbance at 492 nm,serum sample 57 TB−,0.29
same,ELISA absorbance at 492 nm,serum sample 58 TB−,0.28
same,ELISA absorbance at 492 nm,serum sample 59 TB−,0.25
same,ELISA absorbance at 492 nm,serum sample 60 TB−,0.29
same,ELISA absorbance at 492 nm,serum sample 61 TB−,0.34
same,ELISA absorbance at 492 nm,serum sample 62 TB−,0.35*
same,ELISA absorbance at 492 nm,serum sample 63 TB−,0.22
same,ELISA absorbance at 492 nm,serum sample 64 TB−,3.98*
CCCCCCCCCCCCCCCCCCCCCCCC[C@@H](C(=O)OC[C@H]1O[C@H](OC)[C@@H](O)[C@@H]1O)[C@H](O)CCCCCCCCCCC[C@H]1CC1CCCCCCCCCCCCCC[C@H]1C[C@H]1CCCCCCCCCCCCCCCCCCCC (some centres unmarked) [Antigen F],ELISA absorbance at 492 nm,serum sample 1 TB+,0.74*
same,ELISA absorbance at 492 nm,serum sample 2 TB+,0.76*
same,ELISA absorbance at 492 nm,serum sample 3 TB+,0.99*
same,ELISA absorbance at 492 nm,serum sample 4 TB+,0.97*
same,ELISA absorbance at 492 nm,serum sample 5 TB+,0.99*
same,ELISA absorbance at 492 nm,serum sample 6 TB+,1.39*
same,ELISA absorbance at 492 nm,serum sample 7 TB+,1.97*
same,ELISA absorbance at 492 nm,serum sample 8 TB+,1.67*
same,ELISA absorbance at 492 nm,serum sample 9 TB+,1.09*
same,ELISA absorbance at 492 nm,serum sample 10 TB−,0.59
same,ELISA absorbance at 492 nm,serum sample 11 TB−,0.92*
same,ELISA absorbance at 492 nm,serum sample 12 TB−,0.84*
same,ELISA absorbance at 492 nm,serum sample 13 TB−,0.60
same,ELISA absorbance at 492 nm,serum sample 14 TB−,1.30*
same,ELISA absorbance at 492 nm,serum sample 15 TB−,0.64
same,ELISA absorbance at 492 nm,serum sample 16 TB−,0.56
same,ELISA absorbance at 492 nm,serum sample 17 TB−,0.81*
same,ELISA absorbance at 492 nm,serum sample 18 TB−,0.68
same,ELISA absorbance at 492 nm,serum sample 19 TB−,0.71*
same,ELISA absorbance at 492 nm,serum sample 20 TB−,1.03*
same,ELISA absorbance at 492 nm,serum sample 21 TB−,0.61
same,ELISA absorbance at 492 nm,serum sample 22 TB−,0.66
same,ELISA absorbance at 492 nm,serum sample 23 TB−,0.81*
same,ELISA absorbance at 492 nm,serum sample 24 TB−,0.62
same,ELISA absorbance at 492 nm,serum sample 25 TB−,0.21
same,ELISA absorbance at 492 nm,serum sample 26 TB−,0.72
same,ELISA absorbance at 492 nm,serum sample 27 TB−,0.61
same,ELISA absorbance at 492 nm,serum sample 28 TB−,0.38
same,ELISA absorbance at 492 nm,serum sample 29 TB−,0.41
same,ELISA absorbance at 492 nm,serum sample 30 TB−,0.39
same,ELISA absorbance at 492 nm,serum sample 31 TB−,0.51
same,ELISA absorbance at 492 nm,serum sample 32 TB−,0.91*
same,ELISA absorbance at 492 nm,serum sample 33 TB−,0.42
same,ELISA absorbance at 492 nm,serum sample 34 TB−,0.49
same,ELISA absorbance at 492 nm,serum sample 35 TB−,0.38
same,ELISA absorbance at 492 nm,serum sample 36 TB−,0.28
same,ELISA absorbance at 492 nm,serum sample 37 TB−,0.55
same,ELISA absorbance at 492 nm,serum sample 38 TB−,0.52
same,ELISA absorbance at 492 nm,serum sample 39 TB−,0.35
same,ELISA absorbance at 492 nm,serum sample 40 TB−,0.35
same,ELISA absorbance at 492 nm,serum sample 41 TB−,0.66
same,ELISA absorbance at 492 nm,serum sample 42 TB−,0.55
same,ELISA absorbance at 492 nm,serum sample 43 TB−,0.30
same,ELISA absorbance at 492 nm,serum sample 44 TB−,0.98*
same,ELISA absorbance at 492 nm,serum sample 45 TB−,0.43
same,ELISA absorbance at 492 nm,serum sample 46 TB−,0.31
same,ELISA absorbance at 492 nm,serum sample 47 TB−,0.56
same,ELISA absorbance at 492 nm,serum sample 48 TB−,0.32
same,ELISA absorbance at 492 nm,serum sample 49 TB−,0.51
same,ELISA absorbance at 492 nm,serum sample 50 TB−,0.37
same,ELISA absorbance at 492 nm,serum sample 51 TB−,0.21
same,ELISA absorbance at 492 nm,serum sample 52 TB−,0.36
same,ELISA absorbance at 492 nm,serum sample 53 TB−,0.26
same,ELISA absorbance at 492 nm,serum sample 54 TB−,0.27
same,ELISA absorbance at 492 nm,serum sample 55 TB−,0.27
same,ELISA absorbance at 492 nm,serum sample 56 TB−,0.73*
same,ELISA absorbance at 492 nm,serum sample 57 TB−,0.37
same,ELISA absorbance at 492 nm,serum sample 58 TB−,0.41
same,ELISA absorbance at 492 nm,serum sample 59 TB−,0.45
same,ELISA absorbance at 492 nm,serum sample 60 TB−,0.44
same,ELISA absorbance at 492 nm,serum sample 61 TB−,0.41
same,ELISA absorbance at 492 nm,serum sample 62 TB−,0.30
same,ELISA absorbance at 492 nm,serum sample 63 TB−,0.25
same,ELISA absorbance at 492 nm,serum sample 64 TB−,0.29
